As usually defined, the DC50 is the concentration at which degradation of the target reaches its halfway point. Read a low DC50 as degradation at low concentration. Usually Emax stands for the maximal effect, on the per cent scale that the assay sets.

Six compounds from patent US12421220B2, “Bicyclic-substituted glutarimide cereblon binders” (C4 THERAPEUTICS, INC., priority 2022, dated 2025) can be followed below.

In assay [1] the target is T1, CRBN-DDB1 (CRBN_DDB1.3) (Homo sapiens, UniProt Q96SW2). Nature of the assay: Fluorescence polarization (FP) binding assay, CRBN_DDB1.3 construct. Conditions: 0.05% PA (no BSA); benzomorpholine binders; read-out: FP CRBN_DDB1.3 0.05% PA Ka. In general terms: Fluorescence polarisation rises when a labelled molecule tumbles more slowly, as on binding a larger partner.
Assay [2] has as its target T1, CRBN-DDB1 (CRBN_DDB1.3). Described as above. The conditions noted are these: for Kd: 0.05% PA, 0.1% BSA, indoline binders, read-out: FP CRBN_DDB1.3 0.05% PA, 0.1% BSA ka nM. The method, then: (§1) Example 2: Fluorescence Polarization (FP) Assay for Screening Compound Ligand Binders of CRBN-DDB1
(§2) Measuring compound ligand binding to CRBN-DDB 1 was carried out using an established sensitive and quantitative in vitro fluorescence polarization (FP) based binding assay. (See, I. J. Enyedy et al, J. Med. Chem., 44: […] [2001]). Compounds were dispensed from serially diluted DMSO stock into black 384-well compatible fluorescence polarization plates using an Echo acoustic dispenser. Compound binding to CRBN-DDB 1 was measured by displacement of an established CRBN binding ligand conjugated to an Alexa Fluor® dye (probe). A […] mixture containing 10nM CRBN-DDB1 and 5 nM probe in 50 mM Hepes, pH 7.4, 200 mM NaCl, 1% DMSO, 0.1% BSA and 0.05% o pluronic acid-127 acid was added to wells containing compound and incubated at room temperature for 60 min. Matching control wells excluding CRBN-DDB 1 were used to correct for background fluorescence. Plates were read on an Envision plate reader with appropriate FP filter sets. The corrected S (perpendicular) and P (parallel) values were used to calculate fluorescence polarization (FP) with the following equation: FP=1000*(S−G*P)/(S+G*P).
(§3) The fractional amount of bound probe (FB) to CRBN-DDB 1 as a function of compound concentration was fitted according to Wang; FEBS Letters 360, (1995), 111-114 to obtain fits for parameter offsets and binding constant (KA) of competitor compound.

The target in the next assay is T2, BRD4 (Homo sapiens, UniProt O60885).
T2 construct: endogenously expressing BRD4 with HiBiT fusion tag via CRISPR; endogenous in cells; host or cells: 293T.92 (BRD4-HiBiT) cells, a CRISPR knock-in made from 293T
The assay can be described thus: BRD4 HiBiT degradation assay in 293T.92 (BRD4-HiBiT) cells. The conditions noted are these: 293T.92 cells, 24.0 hours. The class given is cell-based. The source says: Example 3: BRD4 HiBiT Method
Dulbecco's modified Eagle medium (DMEM) without phenol red and fetal bovine serum (FBS) were purchased from Gibco (Grand Island, NY, USA). Nano-Glo® HiBiT Lytic Assay System was purchased from Promega (Madison, WI, USA). 293T.92 (BRD4-HiBiT) cell line, endogenously expressing BRD4 with HiBiT fusion tag via CRISPR was made internally from the 293T human cell line acquired from American Type Culture Collection (Rockville, MD, USA). Cell culture flasks and 384-well microplates were acquired from VWR (Radnor, PA, USA) or Corning (Corning, NY, USA).
BRD4 degradation was determined based on quantification of luminescent signal using Nano-Glo® HiBiT Lytic Assay kit. Test compounds were added to the 384-well plate from a top concentration of […] with 11 points, half log titration in duplicates. 293T.92 cells were added into 384-well plates at a cell density of 15000 cells per well. The plates were kept at 37° C. with 5% CO2 for […]. The cells treated in the absence of the test compound were the negative control and the cells without Nano-Glo® HiBiT Lytic reagent were the positive control. After 24-hour incubation, Nano-Glo® HiBiT Lytic Assay reagents were added to the cells. Luminescence was acquired on EnVision™ Multilabel Reader (PerkinElmer, Santa Clara, CA, USA).

In a further assay the target is CRBN-DDB1 (CRBN_DDB1.7) (Homo sapiens, UniProt Q96SW2). The assay can be described thus: Fluorescence polarization (FP) binding assay, CRBN_DDB1.7 construct. The conditions noted are these: 0.05% PA, 0.1% BSA; indoline binders; read-out: FP CRBN_DDB1.7 0.05% PA, 0.1% BSA ka nM. The protocol: as §1, §2, §3

Like-named read-outs stand apart in the source and are kept apart here.

Chain of CRBN-DDB1 (CRBN_DDB1.7) (Q96SW2 81-442 limits assumed): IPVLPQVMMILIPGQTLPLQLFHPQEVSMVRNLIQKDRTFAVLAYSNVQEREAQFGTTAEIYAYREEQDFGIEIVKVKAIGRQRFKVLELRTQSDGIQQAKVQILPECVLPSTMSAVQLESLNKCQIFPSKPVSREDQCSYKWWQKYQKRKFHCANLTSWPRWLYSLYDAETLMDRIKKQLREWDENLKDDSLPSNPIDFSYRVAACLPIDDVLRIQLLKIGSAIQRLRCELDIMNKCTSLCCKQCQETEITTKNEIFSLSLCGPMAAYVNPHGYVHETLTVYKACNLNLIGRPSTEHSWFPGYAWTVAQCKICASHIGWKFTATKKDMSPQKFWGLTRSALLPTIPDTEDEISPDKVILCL
T1 sequence (Q96SW2 318-426 limits assumed): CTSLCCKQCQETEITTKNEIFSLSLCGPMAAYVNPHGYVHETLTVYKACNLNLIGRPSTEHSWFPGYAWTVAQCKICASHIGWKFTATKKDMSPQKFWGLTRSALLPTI

On to `O=C1CCC(N2CCOc3c(C4CCNCC4)cccc32)C(=O)N1` (centres unmarked) [Compound 9-11, 3-[8-(4-piperidyl)-2,3-dihydro-1,4-benzoxazin-4-yl]piperidine-2,6-dione], for which the Kd at CRBN-DDB1 (CRBN_DDB1.3) [1] was at most 100 µM.

Regarding `CC(C)(C)OC(=O)N1CCC(c2cccc3c2OCCN3C2CCC(=O)NC2=O)CC1` (centres unmarked) [Compound 9-6, tert-butyl 4-[4-(2,6-dioxo-3-piperidyl)-2,3-dihydro-1,4-benzoxazin-8-yl]piperidine-1-carboxylate], the “FP CRBN_DDB1.3 0.05% PA, 0.1% BSA Ka nM” value at CRBN-DDB1 (CRBN_DDB1.3) [2] (benzomorpholine binders) is on record as “** (≤100 μM is **)”. For the same compound, the Kd at CRBN-DDB1 (CRBN_DDB1.3) [1] is at most 100 µM. On BRD4, `COC(=O)N1c2ccc3c(nc(Cc4ccccc4)n3[C@H]3CCC[C@H](C(=O)N4CCC(c5ccc6c(c5)OCCN6C5CCC(=O)NC5=O)CC4)C3)c2CC[C@@H]1C` (stereo partly drawn) [Compound 32-14, methyl (7S)-2-benzyl-7-methyl-3-[(1S,3S)-3-[4-[4-(2,6-dioxo-3-piperidyl)-2,3-dihydro-1,4-benzoxazin-7-yl]piperidine-i-carbonyl]cyclohexyl]-8,9-dihydro-7H-imidazo[4,5-f]quinoline-6-carboxylate] gave a DC50 of under 1 µM and an Emax of under 30%.

As for `CC(C)(C)OC(=O)N1CCC(c2c(F)ccc3c2CCN3[C@H]2CCC(=O)NC2=O)CC1` (single isomer, unassigned) [Compound 49-6], the Kd on CRBN-DDB1 (CRBN_DDB1.3) [2] and on CRBN-DDB1 (CRBN_DDB1.7) was under 100000 nM each time. As for `O=C1CC[C@@H](N2CCc3c(N4CCC(CCO)CC4)cccc32)C(=O)N1` (single isomer, unassigned) [Compound 42-6], the Kd on CRBN-DDB1 (CRBN_DDB1.3) [2] and at CRBN-DDB1 (CRBN_DDB1.7) was under 1000 nM each time.

As to `CC(C)(C)OC(=O)N1CCC(c2ccc3c(c2F)CCN3[C@@H]2CCC(=O)NC2=O)CC1` (single isomer, unassigned) [Compound 47-7], the Kd at CRBN-DDB1 (CRBN_DDB1.3) [2] and at CRBN-DDB1 (CRBN_DDB1.7) was under 100000 nM in each case.
